We go through 13 compounds from patent US20250388605A1, “HETEROBIFUNCTIONAL COMPOUNDS AND METHODS OF TREATING DISEASE” (Halda Therapeutics OpCo, Inc., priority 2022, published 2025).

In experiment [1] the test system is T-Rex 293 cell line SC3 cells having increased expression of androgen receptor protein due to exposure to doxycycline. As to the kind of experiment: Cellular growth inhibition, T-Rex 293 SC3 cells with doxycycline (increased androgen receptor expression), CellTiter-Glo. It is filed as cell-based. The following applies: T-Rex 293 SC3 cells with 10 ng/mL doxycycline (increased androgen receptor expression), 72 hours, CellTiter-Glo 2.0. A digest of the protocol:
(§1)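 Doxycycline (10 ng/mL) was either included or omitted to toggle wild-type androgen receptor expression in SC3 cells, a T-Rex 293 clone, grown in stripped-serum, phenol red-free medium. After 72 hours with compound, viable cells were quantified by CellTiter-Glo 2.0.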

Experiment [2] concerns T-Rex 293 cell line SC3 cells lacking increased expression of androgen receptor protein. As to the kind of experiment: Cellular growth inhibition, T-Rex 293 SC3 cells without doxycycline (no increased androgen receptor expression), CellTiter-Glo. It is filed as cell-based. The conditions noted are these: T-Rex 293 SC3 cells not exposed to doxycycline (no increased androgen receptor expression), 72 hours. The method, boiled down: as §1

The structures appear in SMILES notation.

Take `CCS(=O)(=O)Nc1ccc(Oc2cccc(CCN3CC4CN(c5ncc(C(=O)N[C@H]6C(C)(C)[C@H](Oc7ccc(C#N)c(Cl)c7)C6(C)C)cn5)CC4C3)c2)c(-c2cn(C)c(=O)c3[nH]ccc23)c1` (some centres unmarked) [Compound I-119]: the GI50 in experiment [1] and in experiment [2] was less than 500 nM throughout.

Turning to `CCS(=O)(=O)Nc1ccc(Oc2cccc(N3CC(N(C)C4CN(c5ncc(C(=O)N[C@H]6C(C)(C)[C@H](Oc7ccc(C#N)c(Cl)c7)C6(C)C)cn5)C4)C3)c2)c(-c2cn(C)c(=O)c3[nH]ccc23)c1` [Compound I-120], the GI50 is less than 500 nM in experiment [1] and more than 3000 nM in experiment [2].

In the case of `CCS(=O)(=O)Nc1ccc(Oc2cccc(N3CC(CC4CN(c5ncc(C(=O)N[C@H]6C(C)(C)[C@H](Oc7ccc(C#N)c(Cl)c7)C6(C)C)cn5)C4)C3)c2)c(-c2cn(C)c(=O)c3[nH]ccc23)c1` [Compound I-158], the GI50 in experiment [1] is less than 500 nM; in experiment [2], more than 3000 nM.

With `Cn1cc(-c2cc(C(C)(C)O)ccc2Oc2ccc(CC3CCN(c4ncc(C(=O)N[C@H]5C(C)(C)[C@H](Oc6ccc(C#N)c(Cl)c6)C5(C)C)cn4)CC3)cc2)c2cc[nH]c2c1=O` [Compound I-201], the GI50 in experiment [1] is less than 500 nM; in experiment [2], 500 to 1500 nM.

In the case of `Cn1cc(-c2cc(C(C)(C)O)ccc2Oc2ccc(OCC3CCN(c4ncc(C(=O)N[C@H]5C(C)(C)[C@H](Oc6ccc(C#N)c(Cl)c6)C5(C)C)cn4)CC3)cc2)c2cc[nH]c2c1=O` [Compound I-202], the GI50 in experiment [1] is less than 500 nM; in experiment [2], 500 to 1500 nM.

In the case of `Cn1cc(-c2cc(C(C)(C)O)ccc2Oc2ccc(OCCN3CCN(c4ncc(C(=O)N[C@H]5C(C)(C)[C@H](Oc6ccc(C#N)c(Cl)c6)C5(C)C)cn4)CC3)cc2)c2cc[nH]c2c1=O` [Compound I-204], the GI50 in experiment [1] is less than 500 nM; in experiment [2], 500 to 1500 nM.

Turning to `CN(C1CCN(c2ncc(C(=O)N[C@H]3C(C)(C)[C@H](Oc4ccc(C#N)c(Cl)c4)C3(C)C)cn2)CC1)C1CN(c2ccc(Oc3ccc(C(C)(C)O)cc3-c3cn(C)c(=O)c4[nH]ccc34)cc2)C1` [Compound I-208], the GI50 in experiment [1] and in experiment [2] was less than 500 nM each time.

Turning to `Cn1cc(-c2cc(C(C)(C)O)ccc2Oc2ccc(N3CC4(C3)CN(c3ncc(C(=O)N[C@H]5C(C)(C)[C@H](Oc6ccc(C#N)c(Cl)c6)C5(C)C)cn3)CCO4)cc2)c2cc[nH]c2c1=O` [Compound I-212], the GI50 in experiment [1] was less than 500 nM; in experiment [2], 500 to 1500 nM.

As for `Cn1cc(-c2cc(C(C)(C)O)ccc2Oc2cccc(N3CC4(CN(c5ncc(C(=O)N[C@H]6C(C)(C)[C@H](Oc7ccc(C#N)c(Cl)c7)C6(C)C)cn5)CCO4)C3)c2F)c2cc[nH]c2c1=O` [Compound I-216], the GI50 in experiment [1] and in experiment [2] was less than 500 nM throughout.

As to `CCS(=O)(=O)c1ccc(Oc2cccc(OCCN3CCN(c4ncc5c(n4)CN([C@H]4C(C)(C)[C@H](Oc6ccc(C#N)c(Cl)c6)C4(C)C)C5=O)CC3)c2F)c(-c2cn(C)c(=O)c3[nH]ccc23)c1` [Compound I-217], the GI50 in experiment [1] and in experiment [2] was less than 500 nM throughout.

Turning to `Cn1cc(-c2cc(C(C)(C)O)ccc2Oc2ccc(N3CC(OC4CCN(c5ncc(C(=O)N[C@H]6C(C)(C)[C@H](Oc7ccc(C#N)c(Cl)c7)C6(C)C)cn5)CC4)C3)cc2)c2cc[nH]c2c1=O` [Compound I-219], the GI50 in experiment [1] and in experiment [2] was less than 500 nM each time.

In the case of `CCS(=O)(=O)c1ccc(Oc2ccc(OCC3CCN(c4ncc5c(n4)CN([C@H]4C(C)(C)[C@H](Cc6ccc(C#N)c(Cl)c6)C4(C)C)C5=O)CC3)cc2)c(-c2cn(C)c(=O)c3[nH]ccc23)c1` [Compound I-220], the GI50 in experiment [1] and in experiment [2] was less than 500 nM each time.

For `CC(C)N(C1CCN(c2ncc(C(=O)N[C@H]3C(C)(C)[C@H](Oc4ccc(C#N)c(Cl)c4)C3(C)C)cn2)CC1)C1CN(c2cccc(Oc3ccc(C(C)(C)O)cc3-c3cn(C)c(=O)c4[nH]ccc34)c2F)C1` [Compound I-221], the GI50 in experiment [1] was less than 500 nM; in experiment [2] it was more than 3000 nM.
